Measured values from patent publication US9981956B2, “Small molecule inhibitors of fibrosis” (THE CALIFORNIA INSTITUTE FOR BIOMEDICAL RESEARCH, priority 2013, dated 2018).
Like-named read-outs stand apart in the source and are kept apart here.

Columns and labels:
[1] = target: Cyp3A4 (Homo sapiens, UniProt P08684); experiment: Cyp reversible inhibition assay (human liver microsomes)
Protocol: The purpose of this assay was to determine reversible inhibition of Cyp enzyme with a given compound using a substrate probe turnover as the surrogate for inhibition. This was done with human liver microsomes rather an isolated enzyme to account for metabolites of parent drug leading to a potential drug-drug interaction through Cyp inhibition. The substrate turnover (for example conversion of midazolam to hydroxyl midazolam) was monitored by LCMSMS (Q1/Q2=342.2/203.2). Test compounds were tested in a 7-point dose response curve starting from 50 μM to 50 nM (˜3-fold dilution series).
The detailed protocol was as follows: • Prepared test compounds and standard inhibitors working solution (100×) • Pulled microsomes out of the −80° C. freezer to thaw on ice, labeled with the date and put back to freezer immediately after using. • Added 20 μL of the substrate solutions to corresponding wells. • Added 20 μL PB to Blank wells. • Added 2 μL of the test compounds and positive control working solution to corresponding wells. • Added 2 μL MeOH to No Inhibitor wells and Blank wells. • Prepared HLM working solution. • Added 158 μL of the HLM working solution to all wells of incubation plate. • Pre-warmed the plate for about 10 min at 37° C. water bath. • Prepared NADPH cofactor solution. • Added 20 μL NADPH cofactor to all incubation wells. • Mixed and incubated for 10 minutes at 37° C. water bath. • At the time point, terminated the reaction by adding 400 μL cold stop solution (200 ng/mL Tolbutamide in ACN). • Centrifuged the samples at 4000 rpm for 20 minutes to precipitate protein. • Transferred 200 μL supernatant to 200 μL HPLC water and shook for 10 min. • Analyzed samples by LC/MS/MS.

[2] = tested on: fibroblast to myofibroblast transdifferentiation (primary human lung fibroblasts and primary rodent HSCs); experiment: High content imaging and western based assay of fibroblast to myofibroblast transdifferentiation (α-SMA); assay type: cell-based; conditions: graded, TGF-β induced fibroblast to myofibroblast transdifferentiation
Source text: A high content imaging assay, based on α-SMA staining and cell morphological changes associated with fibroblast to myofibroblast transdifferentiation, was established using primary human lung fibroblasts and primary rodent HSCs. Conditions, involving serum starvation and subsequent TGF-β treatment, were identified that facilitate robust in vitro transdifferentiation in a miniaturized (384 well plate) format that is amenable to high throughput small molecule screening. A selective ALK-5 TGF-β1 receptor inhibitor (SB-431542) was used as a positive control. […] This assay was used to identify a hit compound (itraconazole) and was used to evaluate focused panels of itraconazole analogues generated from medicinal chemistry efforts.
The activity of Itraconazole and its analogues was confirmed by analyzing changes in gene expression of multiple genes associated with fibroblast to myofibroblast transdifferentiation using biochemical methods (i.e., Western blot and RT-PCR). These 4-day assays were used to evaluate sets of 6 compounds at a time in 4-point dose response fashion.
After 24 hour incubation, cells were treated with the indicated doses of itraconazole for 48 hours in the presence of 10 ng/mL of TGF-β1 in hepatic stellate medium. Following fixation and staining with an anti smooth muscle actin antibody, cell morphology was analyzed with a Cellomics cell insight imaging reader (FIG. 1 for representative images). Cells were analyzed for mean cellular area of a-SMA staining (FIG. 5a) or mean fluorescence intensity of SMA staining (FIG. 5b).
After 24 incubation, medium was changed to assay medium containing TGF-β1 (10 ng/mL) and simultaneously treated with itraconazole (10 μM), SB431542 (10 μM) or vehicle control (FIG. 6).

[3] = Mouse pharmacokinetic (PK) studies, snapshot format; assay type: in vivo; conditions: plasma, po, 20 mg/kg; for AUC(0-t): read-out: AUC0-24 h
Protocol: Compounds with suitable in vitro ADME properties were progressed to in vivo PK studies. A snapshot format in mice was used to quickly assess the potential for lead candidates to be orally bioavailable. The snapshot format involved a single dose (typically 20 mg/kg) given orally in a standard vehicle (5% PEG/DMSO in water for example). Compounds were infused directly into MS analysis to determine unique MRM (multiple reaction monitoring) signal that is concentration dependent in either ESI positive or negative modes. HPLC analysis using various solvent gradients was performed from organic and aqueous solution to ensure good peak shape of desired Q1/Q2 masses. Formulations included 45% Cyclodextrin in water (as is used clinically for Itraconazole). Other formulations that may used are solutol, Eudragit, MC/Tween, etc. Standard curves were generated using plasma spiked with compound at various concentrations (10 ng/mL to 2000 ng/mL) to determine linear range of Q1/Q2 mass signal to compound concentration using female mouse heparinized plasma. Mice were dosed orally with compound, plasma samples collected by retro-orbital bleeds. Five time points were collected (30 min, 1 h, 4 h, 8 h, 24 h) into heparinized collection tubes. Protein precipitation was performed and compound extracted in cold acetonitrile and analyzed by MS. Nonwinlin was used for PK modeling as needed.

[4] = tested on: bleomycin-induced lung fibrosis; experiment: Bleomycin-induced lung fibrosis model; assay type: in vivo, mouse; conditions: 10 mg/kg SID versus AM-152 (30 mg/kg BID) and pirfenidone (400 mg/kg BID)
Source text: These in vivo assays took 6-8 weeks to complete (including full histological analysis). Typical experiments consisted of groups of 6-8 animals treated with itraconazole (2-4 doses), 1 or 2 itraconazole analogues (2-4 doses), vehicle, and benchmark treatments (pirfenidone and AM-152). AM-152 (Amira Pharmaceuticals) is an LPA1 (Lysophosphatidic acid 1) receptor antagonist. This target has been described as relevant to exacerbation of IPF systems in a mouse bleomycin model (British Journal of Pharmacology (2010), 160, 1699-1713). AM-152 is an advanced compound on this target as has been previously described in more detail in WO 2012/078805 and was used as a positive control and comparator to the compound disclosed in this application.
Nine-week old B6 male mice (Taconic farms) were surgically implanted with osmotic pumps delivering 25 mg/kg bleomycin for seven days. 17 days after surgery mice were treated with drug for 2 weeks. Drug treatments were administered as described in study design (FIG. 14). Previously described anti-fibrotic drugs AM-152 and pirfenidone were used as positive control drugs. […] Stained lung sections were analyzed according to a modified Ashcroft scoring system (FIG. 16) and using an unbiased automated image analysis method. […] Total stained area was then determined by using the area measurement function within ImageJ.

[5] = Cyp 3A4 midazolam LCMS IC50, human liver microsomes, substrate midazolam
[6] = Cyp 3A4 testosterone LCMS IC50, human liver microsomes, substrate testosterone
[7] = 20 mg/kg in 0.5% MC/0.5% TW80 suspension vehicle
[8] = 20 mg/kg in 45% cyclodextrin with water

Chain of Cyp3A4 (P08684 whole entry): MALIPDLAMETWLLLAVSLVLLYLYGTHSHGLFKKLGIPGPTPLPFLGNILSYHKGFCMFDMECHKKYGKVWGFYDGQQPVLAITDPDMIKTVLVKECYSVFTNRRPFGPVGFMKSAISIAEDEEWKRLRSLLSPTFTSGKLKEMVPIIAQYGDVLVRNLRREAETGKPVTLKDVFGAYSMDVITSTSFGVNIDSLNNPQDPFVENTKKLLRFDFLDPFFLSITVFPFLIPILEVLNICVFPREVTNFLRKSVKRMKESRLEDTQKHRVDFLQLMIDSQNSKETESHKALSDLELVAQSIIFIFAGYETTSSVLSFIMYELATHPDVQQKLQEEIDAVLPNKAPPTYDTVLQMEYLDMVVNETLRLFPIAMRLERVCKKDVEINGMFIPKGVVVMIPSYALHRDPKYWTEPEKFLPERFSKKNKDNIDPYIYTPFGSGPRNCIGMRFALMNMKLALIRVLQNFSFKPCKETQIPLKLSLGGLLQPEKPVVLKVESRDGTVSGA

`CCC(C)n1ncn(-c2ccc(N3CCN(c4ccc(OC[C@@H]5CO[C@@](Cn6nccn6)(c6ccc(Cl)cc6Cl)O5)cc4)CC3)cc2)c1=O` (stereo partly shown) [Compound 15] gave an IC50 [1, 5] of over 50 µM, an IC50 [1, 6] of over 50 µM and an EC50 [2] of 0.5 to 5 µM.
Work on `CCC(C)n1ncn(-c2ccc(N3CCN(c4ccc(OC[C@@H]5CO[C@@](Cc6ccnnc6)(c6ccc(Cl)cc6Cl)O5)cc4)CC3)cc2)c1=O` (stereo partly shown) [Compound 22] yielded an IC50 [1, 5] of over 50 µM, an IC50 [1, 6] of over 50 µM and an EC50 [2] of under 0.5 µM. It also gave a Cmax [3, 7] of 170 nM, an AUC(0-t) [3, 7] of 2.21 µM·h and a Cmax [3, 8] of 1710 nM. The AUC(0-t) [3, 8] was 8.08 µM·h.
In the case of `CCC(C)n1ncn(-c2ccc(N3CCN(c4ccc(OC[C@@H]5CO[C@@](Cn6nccn6)(c6ccccc6)O5)cc4)CC3)cc2)c1=O` (stereo partly shown) [Compound 42], the IC50 [1, 5] is reported as over 50 µM, the IC50 [1, 6] is reported as over 50 µM and the EC50 [2] is reported as under 0.5 µM. For the same molecule, the “Lung fibrosis disease severity compared to control compounds” value [4] was “decreased lung fibrosis disease severity with efficacy that was as good or better”, the Cmax [3, 8] was 3160 nM and the AUC(0-t) [3, 8] was 42.7 µM·h.
